Test results reported in ChEMBL document CHEMBL1201862, “PubChem BioAssay data set” (2004).
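Grown in 96-well plates, cells were treated for 48 hours with each compound at five concentrations. Insufficient inhibition: endpoint recorded as highest concentration tested. GI50 = concentration required for 50% inhibition of growth.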 The source made the active and inactive calls. Cut-off read from the data, not from the text of the source: active = GI50 up to about 1.1 µM and inactive = higher.

Columns and labels:
Assay in all cases: inhibition of tumour cell growth, NCI panel, 48 h
NCI-H460 = test system: NCI-H460
SNB-19 = test system: SNB-19
HCC 2998 = test system: HCC 2998
SF-268 = test system: SF-268
A549 = test system: A549
SK-OV-3 = test system: SK-OV-3
A498 = test system: A498
HOP-62 = test system: HOP-62
UACC-257 = test system: UACC-257
Hs-578T = test system: Hs-578T
OVCAR-4 = test system: OVCAR-4
PC-3 = test system: PC-3
HL-60 = test system: HL-60
ACHN = test system: ACHN
SK-MEL-28 = test system: SK-MEL-28
RXF 393 = test system: RXF 393
HT-29 = test system: HT-29
HOP-92 = test system: HOP-92

Structure (SMILES) | GI50 (NCI-H460) | GI50 (SNB-19) | GI50 (HCC 2998) | GI50 (SF-268) | GI50 (A549) | GI50 (SK-OV-3) | GI50 (A498) | GI50 (HOP-62) | GI50 (UACC-257) | GI50 (Hs-578T) | GI50 (OVCAR-4) | GI50 (PC-3) | GI50 (HL-60) | GI50 (ACHN) | GI50 (SK-MEL-28) | GI50 (RXF 393) | GI50 (HT-29) | GI50 (HOP-92)
CC(=O)CCNc1ccc(-c2cc(-c3ccc(N(C)C)cc3)nc3ccc4ccccc4c23)cc1 | 35.2 µM (inactive) | > 100 µM (inactive) | > 100 µM (inactive) | > 44.5 µM (inactive) | 34.1 µM (inactive) | > 100 µM (inactive) | 43.8 µM (inactive) | > 100 µM (inactive) | > 100 µM (inactive) | 39.2 µM (inactive) | 6.52 µM (inactive) | 13.2 µM (inactive) | 3.7 µM (inactive) | 17.8 µM (inactive) | 34.8 µM (inactive) | 12.3 µM (inactive) | 66.2 µM (inactive) | 79.3 µM (inactive)
NS(=O)(=O)c1nn2c(Br)c(-c3ccccc3)nc2s1 | 5.98 µM (inactive) | 9.46 µM (inactive) | 4.92 µM (inactive) | 8.38 µM (inactive) | 6.44 µM (inactive) | 14.7 µM (inactive) | 17 µM (inactive) | 14.9 µM (inactive) | 5.16 µM (inactive) | 9.48 µM (inactive) | 10.6 µM (inactive) | 6.03 µM (inactive) | 3.66 µM (inactive) | 4.45 µM (inactive) | 9.06 µM (inactive) | 0.847 µM (active) | 2.49 µM (inactive) | 8.77 µM (inactive)
COC(=O)/C=C1\C(=O)Nc2ccc(Br)cc21 | 2.25 µM (inactive) | 3.24 µM (inactive) | 2.22 µM (inactive) | 3.49 µM (inactive) | 3.15 µM (inactive) | 3.53 µM (inactive) | 5.22 µM (inactive) | 2.06 µM (inactive) | 1.37 µM (inactive) | 4.04 µM (inactive) | 2.23 µM (inactive) | 1.43 µM (inactive) | 1.59 µM (inactive) | 1.71 µM (inactive) | 2.68 µM (inactive) | 1.54 µM (inactive) | 1.73 µM (inactive) | 1.88 µM (inactive)
Clc1ccc(-c2nn3c(C45CC6CC(CC(C6)C4)C5)nnc3s2)cc1 | > 100 µM (inactive) | > 100 µM (inactive) | > 100 µM (inactive) | > 100 µM (inactive) | > 100 µM (inactive) | > 100 µM (inactive) | 50.2 µM (inactive) | > 100 µM (inactive) | – | > 100 µM (inactive) | 34.4 µM (inactive) | > 100 µM (inactive) | > 100 µM (inactive) | 69.5 µM (inactive) | > 100 µM (inactive) | > 100 µM (inactive) | > 100 µM (inactive) | > 100 µM (inactive)
NS(=O)(=O)c1ccc(/N=N/c2ccc(O)c(C(=O)O)c2)cc1 [SALAZOSULFAMIDE] | > 100 µM (inactive) | > 100 µM (inactive) | > 100 µM (inactive) | > 100 µM (inactive) | > 100 µM (inactive) | > 100 µM (inactive) | > 100 µM (inactive) | > 100 µM (inactive) | > 100 µM (inactive) | 23.6 µM (inactive) | > 100 µM (inactive) | > 100 µM (inactive) | 29.1 µM (inactive) | > 100 µM (inactive) | > 100 µM (inactive) | > 100 µM (inactive) | > 100 µM (inactive) | > 100 µM (inactive)
COc1ccc(/C=C2\CN(C)C/C(=C\c3ccc(OC)c(OC)c3OC)C2=O)c(OC)c1OC | 0.146 µM (active) | 0.237 µM (active) | 0.171 µM (active) | 0.164 µM (active) | 0.294 µM (active) | 0.586 µM (active) | 0.146 µM (active) | 0.294 µM (active) | 0.249 µM (active) | 0.303 µM (active) | 0.253 µM (active) | 0.231 µM (active) | 0.0191 µM (active) | 0.218 µM (active) | 0.147 µM (active) | 0.167 µM (active) | 0.171 µM (active) | 0.617 µM (active)
O=C(O)c1cc(-c2ccncc2)nc2ccccc12 | > 100 µM (inactive) | > 100 µM (inactive) | > 100 µM (inactive) | > 100 µM (inactive) | > 100 µM (inactive) | > 100 µM (inactive) | > 100 µM (inactive) | > 100 µM (inactive) | > 100 µM (inactive) | > 100 µM (inactive) | > 100 µM (inactive) | > 100 µM (inactive) | > 100 µM (inactive) | > 100 µM (inactive) | > 100 µM (inactive) | > 100 µM (inactive) | > 100 µM (inactive) | > 100 µM (inactive)
O=C(/C=C/c1ccccc1)Oc1ccc(C(=O)/C=C/c2ccccc2)cc1 | 8.87 µM (inactive) | 15.1 µM (inactive) | 8.47 µM (inactive) | 12.3 µM (inactive) | 25.1 µM (inactive) | 21.4 µM (inactive) | > 10 µM (inactive) | 12.9 µM (inactive) | 13.6 µM (inactive) | 23.3 µM (inactive) | 25.8 µM (inactive) | 9.31 µM (inactive) | 2.84 µM (inactive) | 11.9 µM (inactive) | 12.4 µM (inactive) | 23.1 µM (inactive) | 12.1 µM (inactive) | 17.1 µM (inactive)
C=CCC(CNC(=O)OCc1ccccc1)OC(=O)OCc1ccccc1 (centres undefined) | > 100 µM (inactive) | > 100 µM (inactive) | > 100 µM (inactive) | > 100 µM (inactive) | 51.3 µM (inactive) | > 100 µM (inactive) | > 100 µM (inactive) | > 100 µM (inactive) | 73.3 µM (inactive) | > 100 µM (inactive) | 69.8 µM (inactive) | 48.3 µM (inactive) | 34 µM (inactive) | > 100 µM (inactive) | > 100 µM (inactive) | > 100 µM (inactive) | 36.3 µM (inactive) | 52.6 µM (inactive)
Cc1ccc2c(c1C)C(=O)/C(=C/c1cccc(C)c1C(=O)O)C2 | 65 µM (inactive) | > 100 µM (inactive) | 51.5 µM (inactive) | > 91.4 µM (inactive) | 79.6 µM (inactive) | 59.8 µM (inactive) | > 45.1 µM (inactive) | > 55.7 µM (inactive) | 57.9 µM (inactive) | > 86.1 µM (inactive) | > 79.6 µM (inactive) | 57.5 µM (inactive) | 48.6 µM (inactive) | 72.3 µM (inactive) | 79.3 µM (inactive) | 63.1 µM (inactive) | 85.5 µM (inactive) | 19.2 µM (inactive)
CCCCCC(C)C[C@H]1CO[C@H](c2ccc[nH]2)N[C@H]1C(=O)OC (some centres undefined) | > 100 µM (inactive) | > 100 µM (inactive) | > 100 µM (inactive) | > 100 µM (inactive) | > 100 µM (inactive) | > 100 µM (inactive) | > 100 µM (inactive) | > 100 µM (inactive) | > 100 µM (inactive) | > 100 µM (inactive) | > 100 µM (inactive) | > 100 µM (inactive) | > 100 µM (inactive) | > 100 µM (inactive) | > 100 µM (inactive) | > 100 µM (inactive) | > 100 µM (inactive) | 29.9 µM (inactive)
Clc1ccccc1C(Nc1cnccn1)Nc1cnccn1 | > 100 µM (inactive) | > 100 µM (inactive) | > 100 µM (inactive) | > 100 µM (inactive) | > 100 µM (inactive) | > 100 µM (inactive) | > 100 µM (inactive) | > 100 µM (inactive) | > 100 µM (inactive) | > 100 µM (inactive) | > 100 µM (inactive) | > 100 µM (inactive) | 0.692 µM (active) | > 100 µM (inactive) | > 100 µM (inactive) | > 100 µM (inactive) | > 100 µM (inactive) | > 100 µM (inactive)
COC(O)C(=O)c1c2c(cc3c1CC1(Cc4cc5c(cc4C1)CCC5)C3)CCC2 (centres undefined) | 23.6 µM (inactive) | 18.1 µM (inactive) | 23.6 µM (inactive) | 20.5 µM (inactive) | 16.8 µM (inactive) | 17.4 µM (inactive) | 17.9 µM (inactive) | 15.9 µM (inactive) | 18.7 µM (inactive) | 20.4 µM (inactive) | 18.5 µM (inactive) | 16.7 µM (inactive) | 23.2 µM (inactive) | 15.7 µM (inactive) | 20 µM (inactive) | 14.8 µM (inactive) | 9.33 µM (inactive) | 15.7 µM (inactive)
Cc1ccc(N/N=C2\C3=C(CCC(C)(C)O3)C(=O)c3ccccc32)cc1 | 17.4 µM (inactive) | 20.8 µM (inactive) | 19.7 µM (inactive) | 30.3 µM (inactive) | 16 µM (inactive) | > 100 µM (inactive) | 18.3 µM (inactive) | 20.6 µM (inactive) | 11 µM (inactive) | 11.6 µM (inactive) | 18.2 µM (inactive) | 37.6 µM (inactive) | 15.2 µM (inactive) | 23.9 µM (inactive) | 21.9 µM (inactive) | 32.4 µM (inactive) | 18.8 µM (inactive) | 43.5 µM (inactive)
Cc1ccc2c(c1)C(=O)C(Cc1ccccc1C(=O)O)C2 (centres undefined) | > 100 µM (inactive) | > 100 µM (inactive) | > 100 µM (inactive) | > 100 µM (inactive) | > 100 µM (inactive) | > 100 µM (inactive) | > 100 µM (inactive) | > 100 µM (inactive) | > 100 µM (inactive) | > 100 µM (inactive) | > 100 µM (inactive) | > 100 µM (inactive) | > 100 µM (inactive) | > 100 µM (inactive) | > 100 µM (inactive) | > 100 µM (inactive) | > 100 µM (inactive) | > 100 µM (inactive)
